# Results published in US11357774B2, “Use of a quinoline sulfonyl compound for treatment of inflammation, inflammatory disorders, autoimmune disorders and malaria” (priority 2019, dated 2022).
# Key:
# [1] = tested on: mouse lung tissues with ALI caused by LPS; assay: Histopathological analysis of lung tissues of mice with LPS-induced ALI; format: in vivo; conditions: LPS 0.4 mg/kg, 24 hours, VR23 30 mg/kg, DEX 4 mg/kg
# Description: Six to eight week old female BALB/c mice strain 028 (Charles River Laboratories, QC, Canada) were fed regularly with laboratory chow and water upon arrival at the Laurentian University Animal Care Facility (Sudbury, ON, Canada). To determine a useful dose of LPS, three mice per group were treated for 24 hours with the following three different conditions: (i) no LPS, (ii) 0.25 mg of LPS per kg of body weight, and (iii) 0.50 mg of LPS per kg of body weight. The different concentrations of LPS were administered intranasally to the three BALB/c mice per concentration. After the animals were sacrificed, the bronchoalveolar lavage fluid (BALF) of each mouse was collected and analyzed for LPS-induced inflammatory responses. […] Experimental design involving the use of VR23 was based on a previous acute lung injury (ALI) instillation by Wei and Huang^26. Briefly, mice were divided into 5 groups, with 3-5 mice per group: no lung injury (i.e., no treat), sham treated, LPS-only, LPS+DEX, and LPS+VR23. […] Bronchoalveolar lavage fluid was collected and the number of cells infiltrated into the bronchoalveolar fluid were counted (FIG. 2). […]
# At 24-hour post-induction of lung injury with LPS, lung tissues were embedded in the paraffin block, followed by slicing them into 10 μm sections using a microtome. […] For microscopy, at least 10 fields were analyzed for each sample. […]
# mouse organs / tumor = conditions: cited from earlier work
# [2] = tested on: IL-6 and TNF-α secretion in human PBMC; assay: IL-6 and TNF-α in PHA-p-stimulated human PBMC (ELISA); format: cell-based; conditions: PHA-p 10 μg/mL, 6 hours
# Description: The values presented are the mean±SEM (n=2).
# The enzyme-linked immunosorbent assay (ELISA) is a quantitative measurement based on sandwich-based enzyme linking, using a protein-specific capture antibody to determine the levels of single or multiple chemokines and cytokines.
# Data in FIG. 14 show the levels of IL-6 (upper plot) and TNF-α (lower plot) in human PBMC (1×10^6/mL cells) stimulated with 10 μg/mL phytohemagglutinin-p (PHA-p) (10 μg/mL) for 6 hours, in the absence (control) or presence of varying concentrations of VR23 (0.38, 0.75, 1.5, 3 or 6 μM) or BTZ (6.25, 12.5, 25 or 50 nM). The measurement was carried out with a single-analyte ELISA.
# [3] = tested on: human fibroblast-like synoviocytes from healthy donors (HFLS-N); assay: Viability test, HFLS-N cells; format: cell-based; conditions: 6 hours, IL-1β 10 ng/mL, VR23 2.5-10 μM
# Description: The values presented are the mean±SEM (n=3).
# The CCK-8 assay was used to count viable cells under the various treatment conditions. Briefly, cells were cultured in 11 columns of a 96-well clustered plate, with 5,000 cells in 100 μL of culture medium per well, excluding one column for a media-only control. The plate was incubated overnight at 37° C. in the humidified conditions, followed by treatment with test compounds diluted in the culture medium (10 μL). Each column was treated with a different condition so that each treatment could have 8 repeats. […] The absorbance was measured using an automatic plate reader (Synergy H4 Hybrid Multi-Mode Microplate Reader, BioTek, Montreal, Canada) at 450 nm wavelength. The cell viability of each treatment sample was determined by using the following equation (%)=(Abstrtmt-Absmedia)/(AbsuT-Absmedia)*100, where Abstrtmt is the absorbance value of cells with the various treatment conditions; Absmedia is the absorbance of the well containing media only; AbsuT is the absorbance of the wells with untreated cells.
# This finding was extended to human cells relevant to autoimmune diseases. […] Cytokine levels in cell culture supernatants were determined by a single-analyte ELISA. […] The cytokine secretion was measured in cell culture supernatants by a single-analyte ELISA.
# [4] = tested on: CQ-resistant P. falciparum ItG; assay: Anti-parasitic assay (SYBR Green I), ItG strain; format: cell-based; conditions: Plasmodium falciparum, 48 h
# Description: The CQ-resistant P. falciparum ItG and the CQ-sensitive 3D7 strains were maintained and assays carried out as described previously^25. Briefly, P. falciparum strains were maintained in RPMI 1640 culture medium supplemented with 10% human serum, 25 mM HEPES, gentamicin, and 50 μM of hypoxanthine. The anti-parasitic assay was carried out as described previously^25. Briefly, a compound gradient was generated across a 96-well assay plate; a constant number of parasites added in 50 μL of the culture medium; allowed to grow for 48 hours; and followed by the measurement of DNA amounts (i.e., fluorescence) using SYBR Green I. The IC50 value is the 50% point between alive and dead for which a three-parameter fit was used.
# VR23 is a derivative of CQ; a well-known anti-malarial drug. […] ItG and […] P. falciparum strains are CQ-resistant and CQ-sensitive strains, respectively. IC50 values were calculated by S.E.M (Table 2).
structure (smiles),measurement,setting,value
"O=[N+]([O-])c1ccc(S(=O)(=O)N2CCN(c3ccnc4cc(Cl)ccc34)CC2)c([N+](=O)[O-])c1 [VR23, 7-chloro-4-(4-(2,4-dinitrophenylsulfonyl)piperazin-1-yl)quinoline]",alveolar inflammation caused by LPS (H & E histopathology),[1],largely prevented
same,anti-tumor activity,mouse organs / tumor; animal-based studies,strong anti-tumor activity
same,toxicity to mouse organs,mouse organs / tumor; animal-based studies,without any notable toxic side effects to mouse organs
same,toxic side effects of paclitaxel in combination,mouse organs / tumor; used in combination with paclitaxel (Tax),reduces toxic side effects caused by paclitaxel
same,PHA-induced IL-6,"[2]; VR23 1.5 μM, BTZ 6 nM",completely prevented
same,PHA-induced TNF-α,"[2]; VR23 3.0 μM, BTZ 4× the IC50 dose",completely prevented
same,"cytokine secretion (IL-6, TNF-α), dose dependence",[2]; VR23 0.38-6 μM,decreases in a dose dependent manner
same,cell viability,[3],none of the conditions examined significantly affected the viability
same,IC50,[4],117 nM
